Test results as given in ChEMBL document CHEMBL4177747, “1,5-Disubstituted 1,2,3-triazole linked disaccharides: Metal-free syntheses and screening of a new class of ribonuclease A inhibitors” (Bioorg Med Chem, 2018).
Activity calls are given as the source filed them. The rule behind the calls is not given here.

Assays:
Homo sapiens [1] = organism: Homo sapiens; experiment: Inhibition of RNase A (unknown origin) assessed as reduction in tRNA substrate degradation at 0.1 to 0.2 mM pretreated for 3 hrs followed by substrate addition measured after 30 mins by ethidium bromide staining based agarose gel electrophoresis
[2] = Inhibition of RNase A (unknown origin) using varying levels of 2',3'-cCMP as substrate by Lineweaver-burk plot analysis; parameters: species or system Homo sapiens
Homo sapiens [3] = organism: Homo sapiens; experiment: Inhibition of RNase A (unknown origin) assessed as reduction in tRNA substrate degradation at 0.35 to 0.5 mM pretreated for 3 hrs followed by substrate addition measured after 30 mins by ethidium bromide staining based agarose gel electrophoresis
Homo sapiens [4] = organism: Homo sapiens; experiment: Inhibition of RNase A (unknown origin) assessed as reduction in tRNA substrate degradation at 0.1 to 0.15 mM pretreated for 3 hrs followed by substrate addition measured after 30 mins by ethidium bromide staining based agarose gel electrophoresis
Homo sapiens [5] = organism: Homo sapiens; experiment: Inhibition of RNase A (unknown origin) assessed as reduction in tRNA substrate degradation at 0.6 to 1 mM pretreated for 3 hrs followed by substrate addition measured after 30 mins by ethidium bromide staining based agarose gel electrophoresis
Homo sapiens [6] = organism: Homo sapiens; experiment: Inhibition of RNase A (unknown origin) assessed as reduction in tRNA substrate degradation at 0.25 to 0.3 mM pretreated for 3 hrs followed by substrate addition measured after 30 mins by ethidium bromide staining based agarose gel electrophoresis

Row | inhibition (Homo sapiens [1]) | Ki [2] | inhibition (Homo sapiens [3]) | inhibition (Homo sapiens [4]) | inhibition (Homo sapiens [5]) | inhibition (Homo sapiens [6]) | SMILES
1 | Active | 563 µM | Active | Active | Active | Active | CC1(C)O[C@H]2O[C@H](Cn3nncc3[C@H]3O[C@@H]4OC(C)(C)O[C@@H]4[C@H]3OCc3ccccc3)[C@H](O)[C@H]2O1
2 |  | 66 µM |  |  |  |  | Cc1cn([C@@H]2O[C@H](C(=O)N[C@H](CC(=O)O)C(=O)N[C@H]3C[C@H](n4cc(C)c(=O)[nH]c4=O)O[C@@H]3CO)[C@@H](O)[C@H]2O)c(=O)[nH]c1=O
